Reference: PubChem BioAssay AID200 (DTP/NCI, 2004)
“And” between values parts separate entries of the source, which are not always exact repeats. Identical values can stand only once. Toxic doses and inconclusive results are not listed. The calls were made as follows: active = survival T/C of 150% or more; inactive = T/C below 125% in these data.

System: B6C3F1 mice, B16 melanoma ip, median survival T/C
Experiment: NCI In Vivo Anticancer Drug Screen. Data for tumor model B16 Melanoma (intraperitoneal) in B6C3F1 mice
Conditions: endpoint: median survival time, schedule: Q01DX009 (ip), higher = longer survival
Outline: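 Values are T/C ratios: the measurement in treated animals divided by that in vehicle-treated controls, using survival or tumor size in mice carrying transplantable tumors.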

[1] = dose: 100.0 mg/kg/injection, vehicle: saline with Tween-80
[2] = dose: 200.0 mg/kg/injection, vehicle: saline with Tween-80
[3] = dose: 400.0 mg/kg/injection, vehicle: saline with Tween-80
[4] = dose: 12.5 mg/kg/injection, vehicle: saline with Tween-80
[5] = dose: 25.0 mg/kg/injection, vehicle: saline with Tween-80
[6] = dose: 50.0 mg/kg/injection, vehicle: saline with Tween-80
[7] = dose: 12.5 mg/kg/injection, vehicle: Klucel (hydroxypropylcellulose) (HPC)
[8] = dose: 25.0 mg/kg/injection, vehicle: Klucel (hydroxypropylcellulose) (HPC)
[9] = dose: 50.0 mg/kg/injection, vehicle: Klucel (hydroxypropylcellulose) (HPC)
[10] = dose: 100.0 mg/kg/injection, vehicle: Klucel (hydroxypropylcellulose) (HPC)
[11] = dose: 200.0 mg/kg/injection, vehicle: Klucel (hydroxypropylcellulose) (HPC)
[12] = dose: 6.25 mg/kg/injection, vehicle: other
[13] = dose: 12.5 mg/kg/injection, vehicle: other
[14] = dose: 25.0 mg/kg/injection, vehicle: other
[15] = dose: 50.0 mg/kg/injection, vehicle: other
[16] = dose: 100.0 mg/kg/injection, vehicle: other
[17] = dose: 12.5 mg/kg/injection, vehicle: saline
[18] = dose: 12.5 mg/kg/injection, vehicle: suspension in saline
[19] = dose: 25.0 mg/kg/injection, vehicle: saline
[20] = dose: 25.0 mg/kg/injection, vehicle: suspension in saline
[21] = dose: 50.0 mg/kg/injection, vehicle: saline
[22] = dose: 50.0 mg/kg/injection, vehicle: suspension in saline
[23] = dose: 100.0 mg/kg/injection, vehicle: saline
[24] = dose: 100.0 mg/kg/injection, vehicle: suspension in saline
[25] = dose: 200.0 mg/kg/injection, vehicle: saline
[26] = dose: 400.0 mg/kg/injection, vehicle: saline

Measured: T/C

O=C(O)C(Cc1ccc(O)cc1)NS(=O)(=O)Cc1ccccc1 (centres undefined)
inactive: [1] 106 % of control | [2] 101 % of control | [3] 100 % of control

CN1C(=O)NC(c2ccc(Cl)cc2)(c2ccc(Cl)cc2)C1=O
inactive: [4] 105 % of control | [5] 100 % of control | [6] 99 % of control | [1] 99 % of control | [2] 103 % of control | [3] 99 % of control

Cc1cc(N2C(=O)CCSC2=S)ccc1Cl
inactive: [7] 92 % of control and 95 % of control | [8] 90 % of control and 98 % of control | [9] 94 % of control | [10] 94 % of control and 98 % of control | [11] 90 % of control and 97 % of control

CN(C)N=Nc1ccc2c(c1)N(C)c1ccc(F)cc1S2
inactive: [12] 106 % of control | [13] 113 % of control | [14] 115 % of control | [15] 120 % of control | [16] 117 % of control

COc1ccc2c(c1)-c1nn(CCCN(C)C)c3ccc([N+](=O)[O-])c(c13)N2
inactive: dose: 1.56 mg/kg/injection, vehicle: water 110 % of control | dose: 3.12 mg/kg/injection, vehicle: water 116 % of control and 122 % of control

COP12(OCCO1)SC(C(F)(F)F)=C(C(F)(F)F)S2
inactive: [4] 100 % of control | [5] 96 % of control | [6] 104 % of control

CN1CCN(c2ccc([N+](=O)[O-])c3no[n+]([O-])c23)CC1
inactive: dose: 2.5 mg/kg/injection, vehicle: saline with Tween-80 101 % of control | dose: 5.0 mg/kg/injection, vehicle: saline with Tween-80 111 % of control | dose: 20.0 mg/kg/injection, vehicle: saline with Tween-80 95 % of control

CC1CCC(n2cnc3c(Cl)ncnc32)O1 (centres undefined)
inactive: [7] 97 % of control and 104 % of control | [8] 92 % of control and 104 % of control | [9] 92 % of control and 98 % of control | [10] 97 % of control and 104 % of control | [11] 92 % of control and 93 % of control

CC(C)(C)OC(=O)NCC(=O)ON1C(=O)CCC1=O
inactive: [6] 100 % of control | [1] 91 % of control

CN(C)N=Nc1cccc2c1N(C)c1ccc(F)cc1S2
inactive: [12] 103 % of control | [13] 100 % of control | [14] 108 % of control | [15] 95 % of control | [16] 102 % of control

CCOC(=O)C1=C(C#N)C2(CCC(OCc3ccccc3)CC2)C(=O)O1 (centres undefined)
inactive: [17] 105 % of control | [18] 105 % of control | [19] 101 % of control | [20] 96 % of control | [21] 94 % of control | [22] 107 % of control | [23] 111 % of control | [24] 109 % of control | dose: 200.0 mg/kg/injection, vehicle: suspension in saline 107 % of control

NC(=S)N/N=C/c1ccc(O)cn1
inactive: [18] 106 % of control | [20] 113 % of control | [22] 119 % of control | [24] 118 % of control

Cn1cnc([N+](=O)[O-])c1SCC(=O)O
inactive: [4] 104 % of control | [17] 109 % of control | [5] 89 % of control | [19] 114 % of control | [6] 103 % of control | [21] 122 % of control | [1] 98 % of control | [23] 108 % of control | [2] 97 % of control | [25] 104 % of control | [3] 97 % of control | [26] 99 % of control

O=S(=O)(c1ccccc1)N1CN2CCN(C2)C1
inactive: [4] 96 % of control | [5] 94 % of control | [6] 108 % of control | [1] 112 % of control | [2] 119 % of control | [3] 122 % of control

CCCCC/C(C=C(C#N)C#N)=C/c1ccccc1
inactive: [5] 111 % of control | [6] 106 % of control | [1] 123 % of control

O=C(O)C1(NO)CCCCC1
inactive: [7] 103 % of control and 105 % of control | [8] 111 % of control and 98 % of control | [9] 111 % of control and 105 % of control | [10] 110 % of control and 107 % of control | [11] 103 % of control and 108 % of control | dose: 400.0 mg/kg/injection, vehicle: Klucel (hydroxypropylcellulose) (HPC) 113 % of control and 106 % of control

CCOC(=O)[C@]1(Br)CC[C@@]1(Br)C(=O)OCC
inactive: [4] 108 % of control and 104 % of control | [5] 110 % of control and 105 % of control | [6] 98 % of control and 106 % of control | [1] 100 % of control and 107 % of control | [2] 110 % of control and 105 % of control

CCNC(=O)[B-][N+](C)(C)C
inactive: [7] 93 % of control | [8] 95 % of control

COc1cc2cc(c1Cl)N(C)C(=O)CC(O)C1(C)OC1C(C)C1CC(O)(NC(=O)O1)C(OC)/C=C/C=C(C)C2OC (centres undefined)
inactive: dose: 4.0 micrograms/kg/injection, vehicle: distilled water + alcohol 105 % of control | dose: 8.0 micrograms/kg/injection, vehicle: distilled water + alcohol 96 % of control | dose: 16.0 micrograms/kg/injection, vehicle: distilled water + alcohol 102 % of control | dose: 32.0 micrograms/kg/injection, vehicle: distilled water + alcohol 88 % of control

O=[N+]([O-])c1nccn1CC(O)CO (centres undefined)
inactive: [17] 91 % of control and 101 % of control | [19] 102 % of control and 107 % of control | [21] 95 % of control and 97 % of control | [23] 111 % of control and 93 % of control | [25] 95 % of control and 98 % of control | [26] 91 % of control and 107 % of control

S=C(S)NN1CCOCC1
inactive: [23] 98 % of control | [25] 99 % of control | [26] 96 % of control
